Reference: ChEMBL document CHEMBL1138495, “Inhibition of subgenomic hepatitis C virus RNA replication by acridone derivatives: identification of an NS3 helicase inhibitor” (J Med Chem, 2009)
In brackets after ≈: the same amount, converted by molar mass. Activity calls are given as the source filed them. The calls are words filed in the database; no cut-off is given here.

Tests used:
[1] = Inhibition of ATPase activity of HCV […] expressed in Escherichia coli; parameters: species or system Hepacivirus hominis
[2] = system: Hepatitis C virus; assay: Antiviral activity against HCV infected in human HuH5.2 assessed as inhibition of viral RNA synthesis after 4 days by Steady-Glo-luciferase assay; type: functional, organism-based, Hepacivirus hominis; settings: Huh-5-2, 96 h
[3] = system: Hepacivirus hominis; assay: Inhibition of HCV recombinant NS5B RNA polymerase expressed in Escherichia coli up to 100 uM by liquid scintillation counter
[4] = Inhibition of HCV NS3 helicase expressed in Escherichia coli; parameters: species or system Hepacivirus hominis
[5] = system: Vero; assay: Cytostatic activity against african green monkey Vero cells in presence of guanosine; type: ADME, cell-based; settings: chlorocebus sabaeus
[6] = system: Vero; assay: Cytostatic activity against african green monkey Vero cells; type: ADME, cell-based; settings: chlorocebus sabaeus
[7] = Cytostatic activity against human HuH5.2 after 3 days by MTS/PMS assay; type: ADME, Huh-5-2; settings: HuH5.2 cells
[8] = molecular target: DNA topoisomerase 2-alpha (Homo sapiens) (UniProt P11388); assay: Inhibition of human topoisomerase 2
[9] = Cytotoxicity against MDBK cells after 3 days by MTS/PMS method; type: cell-based, Bos taurus; settings: cattle
[10] = system: Bovine viral diarrhea virus 1; assay: Antiviral activity against Bovine viral diarrhea virus infected in MDBK cells assessed as inhibition of virus-induced cytopathic effect after 4 to 5 days by microscopy; type: functional, organism-based; settings: Bovine viral diarrhea virus isolates and strains

Sequence of DNA topoisomerase 2-alpha (Homo sapiens) (P11388 whole entry): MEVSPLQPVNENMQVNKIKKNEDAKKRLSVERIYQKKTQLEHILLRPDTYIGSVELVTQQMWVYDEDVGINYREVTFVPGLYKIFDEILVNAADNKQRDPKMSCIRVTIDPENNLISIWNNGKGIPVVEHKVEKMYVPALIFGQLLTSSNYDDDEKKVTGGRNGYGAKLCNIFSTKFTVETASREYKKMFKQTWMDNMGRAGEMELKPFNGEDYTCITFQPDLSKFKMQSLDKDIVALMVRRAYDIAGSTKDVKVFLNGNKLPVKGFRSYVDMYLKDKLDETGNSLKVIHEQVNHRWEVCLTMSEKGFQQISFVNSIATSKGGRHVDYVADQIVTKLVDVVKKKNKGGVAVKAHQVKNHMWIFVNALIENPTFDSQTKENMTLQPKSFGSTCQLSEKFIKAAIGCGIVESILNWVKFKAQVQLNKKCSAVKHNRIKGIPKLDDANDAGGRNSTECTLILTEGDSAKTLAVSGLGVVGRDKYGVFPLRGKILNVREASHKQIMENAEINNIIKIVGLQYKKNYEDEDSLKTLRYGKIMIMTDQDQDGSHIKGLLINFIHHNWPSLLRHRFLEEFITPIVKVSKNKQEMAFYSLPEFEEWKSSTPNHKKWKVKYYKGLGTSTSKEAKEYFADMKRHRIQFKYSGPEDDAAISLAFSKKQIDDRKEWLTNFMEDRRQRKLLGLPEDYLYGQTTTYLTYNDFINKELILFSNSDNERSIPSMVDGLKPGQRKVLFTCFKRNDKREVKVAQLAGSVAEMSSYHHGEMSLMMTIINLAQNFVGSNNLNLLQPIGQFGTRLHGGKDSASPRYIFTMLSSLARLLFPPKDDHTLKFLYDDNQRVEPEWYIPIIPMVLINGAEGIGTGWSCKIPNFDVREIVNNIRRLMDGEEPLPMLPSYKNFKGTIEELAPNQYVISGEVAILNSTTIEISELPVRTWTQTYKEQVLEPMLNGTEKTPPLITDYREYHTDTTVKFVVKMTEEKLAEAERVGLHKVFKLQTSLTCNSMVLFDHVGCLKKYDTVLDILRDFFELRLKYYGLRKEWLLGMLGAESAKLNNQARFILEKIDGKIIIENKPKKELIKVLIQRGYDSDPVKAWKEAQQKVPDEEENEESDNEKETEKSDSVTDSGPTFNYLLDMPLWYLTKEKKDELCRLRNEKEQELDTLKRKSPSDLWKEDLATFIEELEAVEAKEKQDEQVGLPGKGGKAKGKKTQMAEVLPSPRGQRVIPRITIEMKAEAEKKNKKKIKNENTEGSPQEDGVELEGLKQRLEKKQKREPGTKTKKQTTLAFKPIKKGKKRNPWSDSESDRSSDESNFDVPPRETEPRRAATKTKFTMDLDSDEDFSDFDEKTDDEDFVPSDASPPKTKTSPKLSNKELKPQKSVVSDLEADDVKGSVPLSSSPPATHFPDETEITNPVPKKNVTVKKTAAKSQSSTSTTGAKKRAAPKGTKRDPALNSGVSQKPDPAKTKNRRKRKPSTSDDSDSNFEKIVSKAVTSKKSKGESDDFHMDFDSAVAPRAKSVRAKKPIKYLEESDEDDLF

Row | Structure (SMILES) | IC50 [1] [µM] | EC50 [2] [µg/mL] | Activity [3] | IC50 [4] [µg/mL] | Activity [5] | Activity [6] | CC50 at 72 h [7] [µg/mL] | Activity [8] | CC50 at 72 h [9] [µg/mL] | EC50 [10] [µg/mL]
1 | COc1cc(OC)c2c(=O)c3cc(N)c(N4CCN(c5nccs5)CC4)cc3n(C)c2c1 | > 1000 | 3 (≈ 6.64 µM) | inactive | 50 (≈ 111 µM) | Non-toxic | Toxic | > 50 | – | – | –
2 | Cn1c2cc(Cl)c(N)cc2c(=O)c2c(O)cc(O)cc21 | > 1000 | 1.48 (≈ 5.09 µM) | inactive | – | – | – | 3 (≈ 10.3 µM) | inactive | 5 (≈ 17.2 µM) | 0.4 (≈ 1.38 µM)
3 | COc1cc(OC)c2c(=O)c3cc(N)c(Cl)cc3n(C)c2c1 | > 1000 | 20 (≈ 62.7 µM) | inactive | – | – | – | > 50 | – | 20 (≈ 62.7 µM) | > 100
4 | COc1cc(O)c2c(=O)c3cc(N)c(N4CCN(c5ccccn5)CC4)cc3n(C)c2c1 | > 1000 | 13 (≈ 30.1 µM) | inactive | – | – | – | > 50 | – | > 100 | 4 (≈ 9.27 µM)
5 | COc1cc(OC)cc(N(C)c2cc(N3CCN(c4ccccn4)CC3)c(N)cc2C(=O)O)c1 | > 1000 | > 50 | inactive | – | – | – | > 50 | – | – | –
6 | COc1ccc2c(=O)c3cc(N)c(N4CCN(c5ccccn5)CC4)cc3n(C)c2c1 | > 1000 | 0.8 (≈ 1.93 µM) | inactive | – | – | – | 11 (≈ 26.5 µM) | – | – | –
7 | COc1cc(O)c2c(=O)c3cc(N)c(N4CCN(c5nc6ccccc6o5)CC4)cc3n(C)c2c1 | > 1000 | 50 (≈ 106 µM) | inactive | – | – | – | > 50 | – | – | –
8 | COc1cc(OC)c2c(=O)c3cc(N)c(OC)cc3n(C)c2c1 | > 1000 | 9 (≈ 28.6 µM) | inactive | – | – | – | > 50 | – | – | –
9 | COc1cc(O)c2c(=O)c3cc(N)c(N4CCN(c5ccccc5)CC4)cc3n(C)c2c1 | > 1000 | 2.03 (≈ 4.72 µM) | inactive | – | – | – | 8.5 (≈ 19.7 µM) | – | – | –
10 | Cn1c2cc(N3CCN(c4ccccc4)CC3)c(N)cc2c(=O)c2c(O)cc(O)cc21 | > 1000 | 4.4 (≈ 10.6 µM) | inactive | – | – | – | 16.2 (≈ 38.9 µM) | – | – | –
11 | COc1cc(O)c2c(=O)c3cc(N)c(Cl)cc3n(C)c2c1 | > 1000 | 14 (≈ 45.9 µM) | inactive | – | – | – | 41 (≈ 135 µM) | – | 14 (≈ 45.9 µM) | 0.7 (≈ 2.3 µM)
12 | Cn1c2ccccc2c(=O)c2cc(N)c(N3CCN(c4ccccn4)CC3)cc21 | > 1000 | 4 (≈ 10.4 µM) | inactive | – | – | – | 29 (≈ 75.2 µM) | – | – | –
13 | COc1cc(OC)c2c(=O)c3cc(N)c(Cl)cc3n(CCC(C)C)c2c1 | > 1000 | > 50 | inactive | – | – | – | > 50 | – | – | –
14 | COc1cc(OC)c2c(=O)c3cc(N)c(Cl)cc3[nH]c2c1 | > 1000 | 5.7 (≈ 18.7 µM) | inactive | – | – | – | 13 (≈ 42.7 µM) | – | – | –
15 | COc1cc(O)c2c(=O)c3cc(N)c(Cl)cc3[nH]c2c1 | > 1000 | 8 (≈ 27.5 µM) | inactive | – | – | – | > 50 | – | – | –
16 | Cn1c2cc(N3CCN(c4ccccn4)CC3)c(N)cc2c(=O)c2c(O)cc(O)cc21 | > 1000 | 1.7 (≈ 4.07 µM) | inactive | – | – | – | 21 (≈ 50.3 µM) | inactive | > 100 | 0.5 (≈ 1.2 µM)

Continued, in another order:

Row | IC50 [1] [µM] | EC50 [2] [µg/mL] | Activity [3] | IC50 [4] [µg/mL] | Structure (SMILES) | Activity [5] | Activity [6] | CC50 at 72 h [7] [µg/mL] | Activity [8] | CC50 at 72 h [9] [µg/mL] | EC50 [10] [µg/mL]
17 | > 1000 | 3.8 (≈ 7.79 µM) | inactive | – | COc1cc(OCC(C)C)c2c(=O)c3cc(N)c(N4CCN(c5ccccn5)CC4)cc3n(C)c2c1 | Non-toxic | Toxic | 27 (≈ 55.4 µM) | – | – | –
18 | > 1000 | 5.5 (≈ 12.3 µM) | inactive | – | COc1cc(OC)c2c(=O)c3cc(N)c(N4CCN(c5ccncc5)CC4)cc3n(C)c2c1 | Non-toxic | Toxic | > 50 | – | – | –
19 | > 1000 | 6 (≈ 13.5 µM) | inactive | – | COc1cc2c(=O)c3cc(N)c(N4CCN(c5ccccn5)CC4)cc3n(C)c2cc1OC | – | – | 14 (≈ 31.4 µM) | – | – | –
20 | > 1000 | 2.3 (≈ 5.34 µM) | inactive | – | COc1cc(OC)c2c(=O)c3ccc(N4CCN(c5ccccn5)CC4)cc3n(C)c2c1 | Non-toxic | Toxic | > 50 | – | – | –
21 | > 1000 | 1.6 (≈ 3.59 µM) | inactive | – | COc1cc(OC)c2c(=O)c3cc(N)c(N4CCN(c5ccccn5)CC4)cc3n(C)c2c1 | Non-toxic | Toxic | 50 (≈ 112 µM) | inactive | > 100 | > 100
22 | > 1000 | > 50 | inactive | – | COc1cc(OC)c2c(=O)c3cc(F)c(N4CCN(c5ccccn5)CC4)cc3n(C)c2c1 | – | – | > 50 | – | – | –
23 | > 1000 | > 50 | inactive | – | COc1cc(OC)c2c(=O)cc(-c3ccc(N4CCN(c5ccccn5)CC4)c(N)c3)n(C)c2c1 | – | – | > 50 | – | – | –
24 | > 1000 | 10 (≈ 19.9 µM) | inactive | – | COc1cc(OC)c2c(=O)c3cc(N)c(N4CCN(c5ccccn5)CC4)cc3n(CCC(C)C)c2c1 | – | – | 10 (≈ 19.9 µM) | – | – | –
25 | > 1000 | 4 (≈ 8.7 µM) | inactive | – | CCOc1cc(OC)cc2c1c(=O)c1cc(N)c(N3CCN(c4ccccn4)CC3)cc1n2C | – | – | > 50 | – | – | –
26 | > 1000 | 9 (≈ 20.2 µM) | inactive | – | COc1cc(OC)c2c(=O)c3cc(N)c(N4CCN(c5ccccc5)CC4)cc3n(C)c2c1 | – | – | 34 (≈ 76.5 µM) | – | – | –
